From PubChem BioAssay (NCI)
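Cells were grown in 96-well plates and exposed to each compound for 48 hours at five concentrations; endpoints were interpolated linearly between bracketing concentrations, or set to the highest concentration if not reached. Here, GI50 denotes the concentration required for 50% inhibition of growth. Definition used: TGI = concentration required for complete inhibition of growth.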

How the values were obtained:
Test in all cases: NCI-60 cell line screen, 48 h
[1] = test system: CAKI-1 renal
[2] = test system: COLO 205 colon
[3] = test system: HCT-116 colon
[4] = test system: MCF7 breast
[5] = test system: NCI-H23 lung
[6] = test system: RXF 393 renal
[7] = test system: SNB-75 CNS
[8] = test system: TK-10 renal
[9] = test system: UACC-257 melanoma
[10] = test system: UO-31 renal

| Structure (SMILES) | GI50 [1] [µM] | TGI [1] [µM] | GI50 [2] [µM] | TGI [2] [µM] | GI50 [3] [µM] | TGI [3] [µM] | GI50 [4] [µM] | TGI [4] [µM] | GI50 [5] [µM] | TGI [5] [µM] | GI50 [6] [µM] | TGI [6] [µM] | GI50 [7] [µM] | TGI [7] [µM] | GI50 [8] [µM] | TGI [8] [µM] | GI50 [9] [µM] | TGI [9] [µM] | GI50 [10] [µM] | TGI [10] [µM] |
| --- | --- | --- | --- | --- | --- | --- | --- | --- | --- | --- | --- | --- | --- | --- | --- | --- | --- | --- | --- | --- |
| CSC(=S)N/N=C(\C)c1ccccn1 | 0.267 | 7.25 | < 0.01 | 11.9 | < 0.01 | 5.28 | < 0.0207 | 11.2 | 0.119 | 26.5 | 0.261 | 3.1 | 1.47 | 32.3 | 0.527 | 24.2 | 0.159 | 1.55 | 0.154 | 11.8 |
| Cn1c(=O)c(Cc2ccc(F)cc2F)cc2cnc(NC3CCOCC3)nc21 | > 19.4 | > 25 | > 25 | > 25 | > 25 | > 25 | > 25 | > 25 | > 25 | > 25 | 18.5 | > 25 | > 17.5 | > 25 | 14.5 | > 25 | > 25 | > 25 | 11.5 | > 25 |
| COc1cc(/C=C/C(=O)c2ccc(Nc3nc(Nc4ccc(F)cc4)nc(Nc4ccc(F)cc4)n3)cc2)cc(OC)c1OC | > 100 | > 100 | 3.5 | > 100 | 2.56 | > 100 | 5.26 | > 100 | 4.86 | > 100 | 2.74 | 7.49 | > 100 | > 100 | 35.8 | > 100 | 7.11 | 61.1 | 3.75 | > 100 |
| O=C(CC1C(=O)Nc2ccccc2S1=O)Nc1cccc(Cl)c1 (centres undefined) | – | 55.3 | – | > 66.1 | – | > 67.3 | – | 29.9 | – | > 100 | – | 45.6 | – | 64.1 | – | > 100 | – | > 100 | – | > 89.8 |
| CC1=C(C(=O)Nc2ccc(F)c(Cl)c2)C(c2cccc(Cl)c2)NC(=O)N1 (centres undefined) | 27.3 | > 100 | 13.7 | 27.8 | 14.7 | 27.9 | 19.8 | 46 | 16.8 | 31.9 | 15 | 31.5 | 6.2 | 25.5 | 15.8 | 41.6 | 21.4 | 56.2 | 16.1 | 38.1 |
| Oc1ccc2ccccc2c1/C=N\Nc1ccccn1 | 0.212 | 0.678 | 27.6 | > 100 | 0.318 | > 39.2 | 0.895 | > 34 | 0.539 | > 100 | 1.55 | > 57.4 | 1.03 | 10.3 | 4.85 | > 100 | 1.72 | > 100 | 0.114 | 1.31 |
| O=Nc1c(-c2cccc([N+](=O)[O-])c2)nc2ncccn12 | 10.4 | 22.6 | 6.25 | 19.9 | 3.03 | 13.3 | 3.51 | 22.6 | 15.1 | 34.9 | – | 3.01 | 10.9 | 23.8 | 11 | 30.2 | 12.3 | 26.4 | 5.66 | 30.3 |
| COc1ccc(-n2c(N)c(C(=O)NCCN3CCOCC3)c3nc4ccccc4nc32)cc1OC | 4.62 | > 100 | 6.97 | > 100 | 3.49 | > 100 | 4.13 | > 100 | 38.3 | > 100 | 34.1 | > 100 | 38.7 | > 100 | 31.9 | > 100 | 34.4 | > 100 | 3.53 | 62.1 |
| O=c1c2ccccc2nc(-c2ccc(Cl)cc2)n1O | – | > 100 | – | > 100 | – | > 100 | – | 63.4 | – | > 100 | – | > 100 | – | > 100 | – | 88 | – | 88.2 | – | 5.79 |
